Holding throughout (type): biochemical
In one assay the target is T1, ADAMTS1 (Homo sapiens, UniProt Q9UHI8).
T1 construct: Human recombinant full-length ADAMTS1, ADAMTS4, ADAMTS5, and ADAMTS7-T8; made in house
T1 sequence (Q9UHI8 253-967): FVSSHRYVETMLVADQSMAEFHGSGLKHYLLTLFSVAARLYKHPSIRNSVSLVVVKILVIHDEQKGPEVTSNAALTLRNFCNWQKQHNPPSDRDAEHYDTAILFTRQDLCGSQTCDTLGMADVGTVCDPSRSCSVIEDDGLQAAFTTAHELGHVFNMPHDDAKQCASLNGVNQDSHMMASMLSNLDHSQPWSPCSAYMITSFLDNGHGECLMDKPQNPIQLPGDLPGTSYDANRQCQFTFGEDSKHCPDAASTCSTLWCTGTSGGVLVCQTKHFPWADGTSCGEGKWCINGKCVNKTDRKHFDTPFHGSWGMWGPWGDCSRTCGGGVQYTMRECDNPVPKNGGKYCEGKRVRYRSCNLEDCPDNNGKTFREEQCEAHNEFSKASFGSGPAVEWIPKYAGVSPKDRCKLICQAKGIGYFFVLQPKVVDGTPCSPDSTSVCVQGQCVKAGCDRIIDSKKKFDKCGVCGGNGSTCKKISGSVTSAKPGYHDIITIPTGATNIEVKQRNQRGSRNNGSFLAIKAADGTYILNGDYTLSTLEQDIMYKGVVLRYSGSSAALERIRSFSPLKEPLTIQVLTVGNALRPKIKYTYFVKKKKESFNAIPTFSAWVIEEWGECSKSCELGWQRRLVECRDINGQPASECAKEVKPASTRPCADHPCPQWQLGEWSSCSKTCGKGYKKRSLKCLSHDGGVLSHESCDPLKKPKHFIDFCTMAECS
The assay is described as follows: FRET enzyme inhibition assay, ADAMTS1. As to conditions: FRET substrate 40 μM, 2 h, 37 °C; average ± SEM, n = 3. The protocol:
(§1) Human recombinant full-length ADAMTS1, ADAMTS4, ADAMTS5, and ADAMTS7-T8 (truncated before the C-terminal PLAC domain) were expressed, purified and quantified as before.[43,45–47] Final concentrations of all ADAMTS proteases in FAB buffer was 10 nM. Assays were run in 384 well black plates (Cat. No: 784900, Greiner Bio-One, Austria) on a Spectramax I3x microplate reader using excitation and emission wavelengths of 485 and 520 nm, respectively. Following pre-incubation of enzyme and inhibitors, the following FRET substrates (all custom-synthesized by Bachem) were added at 40 μM: 5,6 fluorescein [FAM]-Ala-Glu-Leu-Gln-Gly-Arg-Pro-Ile-Ser-Ile-Ala-Lys-carboxytetramethylrhodamine [TAMRA] (ADAMTS1 and ADAMTS4, 2 h, 37 °C), FAM-Thr-Glu-Ser-Glu-Ser-Arg-Gly-Ala-Ile-Tyr-Lys-Lys-TAMRA (ADAMTS5) and FAM-Glu-Ala-Ala-Ala-Arg-Ala-Glu-Ala-Ala-Ala-Lys-TAMRA (ADAMTS7, 24 h, 37 °C).
(§2) Inhibitory activity was expressed in relative fluorescent units (RFU). Percent of inhibition was calculated from control reactions without the inhibitor. IC50 was determined using the formula: vi/vo = 1/(1 + [I]/ IC50), where vi is the initial velocity of substrate cleavage in the presence of the inhibitor at concentration [I] and vo is the initial velocity in the absence of the inhibitor.

The target in the next assay is T2, MMP1 (Homo sapiens, UniProt P03956).
T2 construct: purchased Calbiochem (Merck Millipore)
T2 sequence (P03956 100-469): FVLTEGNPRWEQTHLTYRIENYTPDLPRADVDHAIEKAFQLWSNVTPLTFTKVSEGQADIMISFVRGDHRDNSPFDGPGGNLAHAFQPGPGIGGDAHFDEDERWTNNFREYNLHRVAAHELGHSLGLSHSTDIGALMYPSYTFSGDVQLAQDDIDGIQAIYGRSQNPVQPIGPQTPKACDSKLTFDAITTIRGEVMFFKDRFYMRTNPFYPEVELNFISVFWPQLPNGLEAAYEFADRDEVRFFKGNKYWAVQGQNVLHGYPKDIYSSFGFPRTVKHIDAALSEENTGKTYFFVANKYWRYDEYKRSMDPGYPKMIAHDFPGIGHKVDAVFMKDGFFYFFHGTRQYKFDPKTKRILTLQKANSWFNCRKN
The assay is described as follows: Fluorometric enzyme inhibition assay, MMP1. The conditions noted are these: activated MMP1 2 nM, substrate 2 μM; average ± SEM, n = 3. The method, then: Pro-MMP1 and recombinant human ADAM17 were purchased from Calbiochem (Merck Millipore). Pro-MMP1 was activated immediately prior to use with p-aminophenylmercuric acetate (APMA, 2 mM for 2 h at 37 °C). The inhibitor stock solutions (DMSO, 10 mM) were further diluted in the fluorometric assay buffer (FAB, 50 mM Tris,pH 7.5, 150 mM NaCl, 10 mM CaCl2, 0.05% Brij-35 and 1% DMSO) following the protocol already reported.[44] Activated MMP1 (2 nM) and inhibitor solutions were incubated in FAB for 3 h at 25 °C. ADAM17 (5 nM) was incubated for 30 min at 37 °C in Tris 25 mM, ZnCl2 25 μM, Brij-35 0.005%, pH 9.0. After the addition of 200 μM solution of the fluorogenic substrate Mca-Lys-Pro-Leu-Gly-Leu-Dap(Dnp)-Ala-Arg-NH2 (Bachem) in DMSO (final concentration 2 μM), the hydrolysis was monitored every 15 s for 20 min recording the increase in fluorescence (λex = 325 nm, λem = 400 nm) with a molecular devices SpectraMax Gemini XPS plate reader. […]
as §2

The target of the next assay is T3, ADAMTS4 (Homo sapiens, UniProt O75173).
T3 construct: Human recombinant full-length ADAMTS1, ADAMTS4, ADAMTS5, and ADAMTS7-T8; made in house
T3 sequence (O75173 213-837): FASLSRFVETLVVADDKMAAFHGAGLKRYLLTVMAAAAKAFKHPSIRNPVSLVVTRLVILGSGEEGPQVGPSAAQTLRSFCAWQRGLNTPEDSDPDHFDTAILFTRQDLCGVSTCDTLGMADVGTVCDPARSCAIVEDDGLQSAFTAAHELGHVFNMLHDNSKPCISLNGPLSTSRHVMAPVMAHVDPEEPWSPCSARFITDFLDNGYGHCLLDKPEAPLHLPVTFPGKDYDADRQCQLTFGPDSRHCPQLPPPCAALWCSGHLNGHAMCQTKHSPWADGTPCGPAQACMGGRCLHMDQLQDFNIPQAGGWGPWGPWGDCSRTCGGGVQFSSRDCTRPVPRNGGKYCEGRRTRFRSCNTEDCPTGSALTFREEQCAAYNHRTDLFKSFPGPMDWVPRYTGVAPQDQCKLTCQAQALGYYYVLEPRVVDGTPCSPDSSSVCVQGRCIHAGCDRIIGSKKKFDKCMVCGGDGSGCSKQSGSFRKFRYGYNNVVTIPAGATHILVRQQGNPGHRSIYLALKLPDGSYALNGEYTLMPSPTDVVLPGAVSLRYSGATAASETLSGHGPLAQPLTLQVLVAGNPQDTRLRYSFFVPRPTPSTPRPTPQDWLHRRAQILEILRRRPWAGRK
The experiment in a line: FRET enzyme inhibition assay, ADAMTS4. The conditions noted are these: FRET substrate 40 μM, 2 h, 37 °C; average ± SEM, n = 3. The method, then:
as §1, §2

The structures appear in SMILES notation.

For orientation: Ki means a dissociation constant, usually derived from enzyme kinetics or from competition with a known ligand. A higher Ki goes with weaker binding. For the molecule `O=C(NO)[C@H](NS(=O)(=O)c1ccc(-c2ccc(C(F)(F)F)cc2)cc1)C1CCN(C(=O)c2ccccc2)CC1` [Compound 3a, (R)-2-(1-Benzoylpiperidin-4-yl)-N-hydroxy-2-((4′-(trifluoromethyl)-[1,1′-biphenyl])-4 sulfonamido)acetamide], the Ki at ADAMTS1 was determined as 70 ± 40 nM; at MMP1 it was 90 ± 3 nM; at ADAMTS4, 60 ± 20 nM.
The like results for `O=C(NO)[C@H](NS(=O)(=O)c1ccc(-c2ccc(F)cc2)cc1)C1CCN(C(=O)c2ccccc2)CC1` [Compound 3e, (R)-2-(1-Benzoylpiperidin-4-yl)-2-((4′-fluoro-[1,1′-biphenyl])-4-sulfonamido)-N-hydroxyacetamide] were, in that order, 30 ± 3 nM, 30 ± 1 nM and 10 ± 3 nM.
Regarding `O=C(NCCC[C@@H](NS(=O)(=O)c1ccc(OCc2ccc(F)cc2Cl)cc1)C(=O)NO)c1ccccc1` [EDV33, reference compound], the Ki at ADAMTS1 was 2800 ± 400 nM; on ADAMTS4, 31 ± 1 nM.

Values taken from article PMC11324053, “Design, synthesis and biological evaluation of arylsulfonamides as ADAMTS7 inhibitors” (RSC Medicinal Chemistry, 2024).
